The target in one data set is T1, 5-HT4 receptor (Cavia porcellus, UniProt O70528).
T1 construct: from tissue; host or cells: guinea pig striatum
Description: 5-HT4 Receptor Binding - Guinea Pig Striatum. Particulars: radioligand [3H]GR113808 (0.70 nM). From the text: The 5-HT4 receptor is known to be the major receptor subtype involved in the prokinetic activity of cisapride in the gut.

In data set [1] the target is T2, human IKr (hERG K+ channels) (Homo sapiens, UniProt Q12809).
T2 construct: expressed in transfected cells; host or cells: HEK-293
In words: Inhibition of IKr activity, whole cell patch-clamp in HEK-293 cells expressing hERG K+ channels. Particulars: data normalized to % control tail IKr. The data set is classed as cell-based. Here is the method: The rapidly activating delayed rectifier potassium (K+) current in humans (human IKr) is a K+ channel that is encoded by the human-ether-a-go-go-related gene (hERG). Cisapride is known to produce QT interval prolongations via a blockade of IKr, and it was therefore of interest to determine whether compounds of the invention have important inhibitory effects on human IKr. The test system was mammalian HEK-293 cells expressing the hERG K+ channels, in which the potassium current was measured by whole cell patch-clamp technique.
On the technique in general: The patch-clamp technique gives a direct electrical read-out from membranes.

For data set [2] the following is noted: between July 1993 and December 1999; cited from earlier work.
For data set [3] the following is noted: in vivo; cited from earlier work.

T1 sequence (O70528 whole entry): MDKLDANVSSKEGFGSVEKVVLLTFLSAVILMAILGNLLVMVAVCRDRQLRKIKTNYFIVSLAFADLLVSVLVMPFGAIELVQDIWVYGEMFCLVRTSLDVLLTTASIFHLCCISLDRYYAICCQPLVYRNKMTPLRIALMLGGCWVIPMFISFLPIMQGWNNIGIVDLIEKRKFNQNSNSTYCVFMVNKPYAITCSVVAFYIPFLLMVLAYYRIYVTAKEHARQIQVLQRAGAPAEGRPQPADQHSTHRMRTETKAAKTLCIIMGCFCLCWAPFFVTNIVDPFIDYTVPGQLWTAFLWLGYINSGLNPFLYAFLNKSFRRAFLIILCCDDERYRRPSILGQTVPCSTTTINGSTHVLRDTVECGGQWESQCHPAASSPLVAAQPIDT
T2 sequence (Q12809 whole entry): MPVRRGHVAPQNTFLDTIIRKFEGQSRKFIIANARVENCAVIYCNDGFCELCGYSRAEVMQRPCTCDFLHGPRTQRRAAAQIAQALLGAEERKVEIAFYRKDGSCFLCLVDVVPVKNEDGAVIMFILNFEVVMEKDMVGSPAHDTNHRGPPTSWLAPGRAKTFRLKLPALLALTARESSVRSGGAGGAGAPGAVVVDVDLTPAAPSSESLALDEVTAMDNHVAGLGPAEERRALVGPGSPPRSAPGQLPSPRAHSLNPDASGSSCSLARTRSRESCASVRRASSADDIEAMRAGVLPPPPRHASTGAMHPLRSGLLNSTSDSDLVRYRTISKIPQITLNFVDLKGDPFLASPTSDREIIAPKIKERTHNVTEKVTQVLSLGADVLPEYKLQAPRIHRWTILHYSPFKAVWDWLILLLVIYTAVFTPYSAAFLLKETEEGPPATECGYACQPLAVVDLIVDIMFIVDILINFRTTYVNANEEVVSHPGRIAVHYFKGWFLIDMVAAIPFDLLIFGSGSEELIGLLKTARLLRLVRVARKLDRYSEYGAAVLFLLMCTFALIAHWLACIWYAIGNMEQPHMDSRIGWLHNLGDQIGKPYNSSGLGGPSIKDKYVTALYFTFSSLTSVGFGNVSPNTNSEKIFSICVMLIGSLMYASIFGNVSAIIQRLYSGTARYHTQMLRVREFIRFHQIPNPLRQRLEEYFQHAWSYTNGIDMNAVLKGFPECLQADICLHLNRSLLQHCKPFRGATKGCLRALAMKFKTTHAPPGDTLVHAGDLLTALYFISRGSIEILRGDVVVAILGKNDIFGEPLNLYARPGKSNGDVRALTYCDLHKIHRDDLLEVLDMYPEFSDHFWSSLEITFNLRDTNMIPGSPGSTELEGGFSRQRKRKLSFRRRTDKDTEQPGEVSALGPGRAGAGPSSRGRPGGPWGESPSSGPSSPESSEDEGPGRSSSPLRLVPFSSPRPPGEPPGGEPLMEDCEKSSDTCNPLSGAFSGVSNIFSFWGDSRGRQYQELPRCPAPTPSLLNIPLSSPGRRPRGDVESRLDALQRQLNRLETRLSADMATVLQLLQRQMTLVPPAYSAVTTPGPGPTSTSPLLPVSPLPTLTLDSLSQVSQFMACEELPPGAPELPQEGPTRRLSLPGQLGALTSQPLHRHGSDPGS

In general, Ki refers to a measure of affinity in units of concentration, obtained from inhibition or displacement. Low values mean a stronger hold on the target, high ones a looser hold on the target. As usually defined, the IC50 is the concentration that inhibits the measured activity by half. A low value points to greater potency. At 5-HT4 receptor, `COc1cc(N)c(Cl)cc1C(=O)N[C@@H]1CCN(CCN(C)Cc2ccc(C(=O)OCCN3CCCC3)cc2)C[C@@H]1OC` [Compound 10, 2-(pyrrolidin-1-yl)ethyl 4-(((2-((3S,4R)-4-(4-amino-5-chloro-2-methoxybenzamido)-3-methoxypiperidin-1-yl)ethyl)(methyl)amino)methyl)benzoate] had an inhibition constant Ki below 50 nM. This compound also yielded an IC50 in data set [1] above 25000 nM.
With `COc1cc(N)c(Cl)cc1C(=O)N[C@@H]1CCN(CCN(C)Cc2ccc(C(=O)OC3CCN(C)CC3)cc2)C[C@@H]1OC` [Compound 11, 1-methylpiperidin-4-yl 4-(((2-((3S,4R)-4-(4-amino-5-chloro-2-methoxybenzamido)-3-methoxypiperidin-1-yl)ethyl)(methyl)amino)methyl)benzoate], the Ki on 5-HT4 receptor is below 50 nM.
In the case of `COc1cc(N)c(Cl)cc1C(=O)N[C@@H]1CCN(CCN(C)Cc2ccc(C(=O)OCCN3CCOCC3)cc2)C[C@@H]1OC` [Compound 12, 2-morpholinoethyl 4-(((2-((3S,4R)-4-(4-amino-5-chloro-2-methoxybenzamido)-3-methoxypiperidin-1-yl)ethyl)(methyl)amino)methyl)benzoate], the inhibitory constant (Ki) at 5-HT4 receptor is 50 to 500 nM.
As for `COc1cc(N)c(Cl)cc1C(=O)N[C@@H]1CCN(CCNCc2ccc(C(=O)O)cc2)C[C@@H]1OC` [Compound 23, 4-((2-((3S,4R)-4-(4-amino-5-chloro-2-methoxybenzamido)-3-methoxypiperidin-1-yl)ethylamino)methyl)benzoic acid], the Ki at 5-HT4 receptor is above 500 nM.
On to `COc1cc(N)c(Cl)cc1C(=O)N[C@@H]1CCN(CCNCc2ccc(C(=O)OCCCO)cc2)C[C@@H]1OC` [Compound 24, 3-hydroxypropyl 4-((2-((3S,4R)-4-(4-amino-5-chloro-2-methoxybenzamido)-3-methoxypiperidin-1-yl)ethylamino)methyl)benzoate], for which the Ki at 5-HT4 receptor lay in the range of 50 to 500 nM.
With `COc1cc(N)c(Cl)cc1C(=O)N[C@@H]1CCN(CCNCc2ccc(C(=O)OC3CCNCC3)cc2)C[C@@H]1OC` [Compound 25, piperidin-4-yl 4-((2-((3S,4R)-4-(4-amino-5-chloro-2-methoxybenzamido)-3-methoxypiperidin-1-yl)ethylamino)methyl)benzoate], the Ki at 5-HT4 receptor is below 50 nM. In data set [1], this compound showed an IC50 above 25000 nM.
The like results for `COc1cc(N)c(Cl)cc1C(=O)N[C@@H]1CCN(CCNC(=O)c2ccc(C(=O)O)cc2)C[C@@H]1OC` [Compound 33, 4-(2-((3S,4R)-4-(4-amino-5-chloro-2-methoxybenzamido)-3-methoxypiperidin-1-yl)ethylcarbamoyl)benzoic acid] were, in that order, above 500 nM and above 25000 nM.
At 5-HT4 receptor, `COc1cc(N)c(Cl)cc1C(=O)N[C@@H]1CCN(CCNC(=O)c2ccc(C(=O)OC3CCNCC3)cc2)C[C@@H]1OC` [Compound 34, piperidin-4-yl 4-(2-((3S,4R)-4-(4-amino-5-chloro-2-methoxybenzamido)-3-methoxypiperidin-1-yl)ethylcarbamoyl)benzoate] displayed a Ki below 50 nM.
As for `COc1cc(N)c(Cl)cc1C(=O)N[C@@H]1CCN(CC(=O)Nc2ccc(CC(=O)O)cc2)C[C@@H]1OC` [Compound 45, 2-(4-(2-((3S,4R)-4-(4-amino-5-chloro-2-methoxybenzamido)-3-methoxypiperidin-1-yl)acetamido)phenyl)acetic acid], at 5-HT4 receptor, the Ki is above 500 nM. In data set [1], this compound came in with an IC50 above 25000 nM.
In turn, `CCOC(=O)Cc1ccc(NC(=O)CN2CC[C@@H](NC(=O)c3cc(Cl)c(N)cc3OC)[C@@H](OC)C2)cc1` [Compound 46, ethyl 2-(4-(2-((3S,4R)-4-(4-amino-5-chloro-2-methoxybenzamido)-3-methoxypiperidin-1-yl)acetamido)phenyl)acetate] gave a Ki at 5-HT4 receptor below 50 nM.
The compound `COc1cc(N)c(Cl)cc1C(=O)N[C@@H]1CCN(CC(=O)Nc2ccc(CC(=O)OC3CCN(C)CC3)cc2)C[C@@H]1OC` [Compound 47, 1-methylpiperidin-4-yl 2-(4-(2-((3S,4R)-4-(4-amino-5-chloro-2-methoxybenzamido)-3-methoxypiperidin-1-yl)acetamido)phenyl)acetate] showed a Ki at 5-HT4 receptor below 50 nM. The same compound came in with an IC50 in data set [1] above 25000 nM.
`COc1cc(N)c(Cl)cc1C(=O)N[C@@H]1CCN(CC(=O)Nc2ccc(CC(=O)OCCCO)cc2)C[C@@H]1OC` [Compound 48, 3-hydroxypropyl 2-(4-(2-((3S,4R)-4-(4-amino-5-chloro-2-methoxybenzamido)-3-methoxypiperidin-1-yl)acetamido)phenyl)acetate] gave an inhibition constant Ki at 5-HT4 receptor below 50 nM. In data set [1], this compound showed an IC50 of 10000 to 25000 nM.
On 5-HT4 receptor, `COc1cc(N)c(Cl)cc1C(=O)N[C@@H]1CCN(CC(=O)Nc2ccc(CC(=O)OC3CN4CCC3CC4)cc2)C[C@@H]1OC` (stereo partly drawn) [Compound 49, quinuclidin-3-yl 2-(4-(2-((3S,4R)-4-(4-amino-5-chloro-2-methoxybenzamido)-3-methoxypiperidin-1-yl)acetamido)phenyl)acetate] returned a Ki below 50 nM.
`COc1cc(N)c(Cl)cc1C(=O)N[C@@H]1CCN(CC(=O)Nc2ccc(O)cc2)C[C@@H]1OC` [Compound 59, 4-amino-5-chloro-N-((3S,4R)-1-(2-(4-hydroxyphenylamino)-2-oxoethyl)-3-methoxypiperidin-4-yl)-2-methoxybenzamide] gave a Ki on 5-HT4 receptor below 50 nM.
For `COc1cc(N)c(Cl)cc1C(=O)N[C@@H]1CCN(CC(=O)Nc2ccc(OC(C)=O)cc2)C[C@@H]1OC` [Compound 60, 4-(2-((3S,4R)-4-(4-amino-5-chloro-2-methoxybenzamido)-3-methoxypiperidin-1-yl)acetamido)phenyl acetate], on 5-HT4 receptor, the Ki was below 50 nM.
`COc1cc(N)c(Cl)cc1C(=O)N[C@@H]1CCN(CCCc2ccc(C(=O)O)cc2)C[C@@H]1OC` [Compound 66, 4-(3-((3S,4R)-4-(4-amino-5-chloro-2-methoxybenzamido)-3-methoxypiperidin-1-yl)propyl)benzoic acid]: the Ki on 5-HT4 receptor is above 500 nM. This compound showed an IC50 in data set [1] above 25000 nM.
Turning to `COc1cc(N)c(Cl)cc1C(=O)N[C@@H]1CCN(CCCc2ccc(C(=O)OCCN3CCOCC3)cc2)C[C@@H]1OC` [Compound 67, 2-morpholinoethyl 4-(3-((3S,4R)-4-(4-amino-5-chloro-2-methoxybenzamido)-3-methoxypiperidin-1-yl)propyl)benzoate], the Ki at 5-HT4 receptor was below 50 nM.
Regarding `COc1cc(N)c(Cl)cc1C(=O)N[C@@H]1CCN(CCCc2ccc(C(=O)OCCN3CCCC3)cc2)C[C@@H]1OC` [Compound 68, 2-(pyrrolidin-1-yl)ethyl 4-(3-((3S,4R)-4-(4-amino-5-chloro-2-methoxybenzamido)-3-methoxypiperidin-1-yl)propyl)benzoate], at 5-HT4 receptor, the Ki was below 50 nM.
Same read-out and setting: under `COc1cc(N)c(Cl)cc1C(=O)N[C@@H]1CCN(CCCc2ccc(C(=O)OC3CCN(C)CC3)cc2)C[C@@H]1OC` [Compound 69, 1-methylpiperidin-4-yl 4-(3-((3S,4R)-4-(4-amino-5-chloro-2-methoxybenzamido)-3-methoxypiperidin-1-yl)propyl)benzoate] stands below 50 nM.
With `COc1cc(N)c(Cl)cc1C(=O)N[C@@H]1CCN(CC(=O)Nc2ccc(C(=O)OCCO)cc2)C[C@@H]1OC` [Compound 93, 2-hydroxyethyl 4-(2-((3S,4R)-4-(4-amino-5-chloro-2-methoxybenzamido)-3-methoxypiperidin-1-yl)acetamido)benzoate], at 5-HT4 receptor, the Ki was below 50 nM. This compound returned an IC50 in data set [1] above 25000 nM.
For the compound `COc1cc(N)c(Cl)cc1C(=O)N[C@@H]1CCN(CC(=O)Nc2ccc(C(=O)OCC(N)=O)cc2)C[C@@H]1OC` [Compound 94, 2-amino-2-oxoethyl 4-(2-((3S,4R)-4-(4-amino-5-chloro-2-methoxybenzamido)-3-methoxypiperidin-1-yl)acetamido)benzoate], the Ki on 5-HT4 receptor was below 50 nM. In data set [1], the IC50 lay within 5000 to 10000 nM.
As to `COc1cc(N)c(Cl)cc1C(=O)N[C@@H]1CCN(CC(=O)Nc2ccc(C(=O)OCCN3CCNCC3)cc2)C[C@@H]1OC` [Compound 95, 2-(piperazin-1-yl)ethyl 4-(2-((3S,4R)-4-(4-amino-5-chloro-2-methoxybenzamido)-3-methoxypiperidin-1-yl)acetamido)benzoate], the Ki at 5-HT4 receptor is below 50 nM.
Take `COc1cc(N)c(Cl)cc1C(=O)NC1CCN(CCCOc2ccc(F)cc2)CC1OC` (stereo not shown) [cisapride]: in data set [2], the deaths reported is listed as 80 and the “serious cardiac arrhythmias reportedly associated” value is on record as “at least 341”. In data set [3], the “part of dose metabolized by oxidative N-dealkylation or aromatic hydroxylation” value is listed as “More than 90%”.

(Values after patent US20080085915A1, “COMPOUNDS AND METHODS FOR THE TREATMENT OF GASTROINTESTINAL AND CENTRAL NERVOUS SYSTEM DISORDERS” (priority 2006, published 2008).)
